Test results as given in patent publication US9469650B2, “Melampomagnolide B derivatives” (BOARD OF TRUSTEES OF THE UNIVERSITY OF ARKANSAS, priority 2013, dated 2016).

How the values were obtained:
CCRF-CEM = assay: panel of 60 human tumor cell lines, growth inhibition (Leukemia); conditions: Homo sapiens
SK-MEL-28 = assay: panel of 60 human tumor cell lines, growth inhibition (Melanoma); conditions: Homo sapiens
UACC-62 = assay: as above; conditions: Homo sapiens
SNB-19 = assay: panel of 60 human tumor cell lines, growth inhibition (CNS Cancer); conditions: Homo sapiens
SNB-75 = assay: as above; conditions: Homo sapiens
HCC-2998 = assay: panel of 60 human tumor cell lines, growth inhibition (Colon Cancer); conditions: Homo sapiens
HCT-116 = assay: as above; conditions: Homo sapiens
KM12 = assay: as above
786-0 = assay: panel of 60 human tumor cell lines, growth inhibition (Renal Cancer); conditions: Homo sapiens
A498 = assay: as above; conditions: Homo sapiens
RXF 393 = assay: as above; conditions: Homo sapiens
UO-31 = assay: as above; conditions: Homo sapiens
T-47D = assay: panel of 60 human tumor cell lines, growth inhibition (Breast Cancer); conditions: Homo sapiens, T47D
OVCAR-5 = assay: panel of 60 human tumor cell lines, growth inhibition (Ovarian Cancer)
NCI/ADR-RES = assay: as above; conditions: Homo sapiens
SK-OV-3 = assay: as above; conditions: Homo sapiens
DU-145 = assay: panel of 60 human tumor cell lines, growth inhibition (Prostate Cancer); conditions: Homo sapiens
NCI-H23 = assay: panel of 60 human tumor cell lines, growth inhibition (Non-Small Cell Lung Cancer); conditions: Homo sapiens
NCI-H522 = assay: as above; conditions: Homo sapiens

Structure (SMILES): C=C1C(=O)O[C@H]2[C@H]1CC/C(COC(=O)NCCN1CCCC1)=C\CC[C@@]1(C)O[C@@H]21 [JVM 59, ((1aR,7aS,10aS,10bS,E)-1a-methyl-8-methylene-9-oxo-1a,2,3,6,7,7a,8,9,10a,10b-decahydrooxireno[2′,3′:9,10]cyclodeca[1,2-b]furan-5-yl)methyl-(2-(pyrrolidin-1-yl)ethyl)carbamate]
- GI50 (CCRF-CEM; 5-dose assay): 2.49 µM
- GI50 (CCRF-CEM; five dose): 2.49 µM
- CC50 (CCRF-CEM; read-out: LC50): 64.3 µM
- IC (TGI) (CCRF-CEM; read-out: TGI): 9.12 µM
- GI50 (SK-MEL-28; SK-MEL-28): 12.3 µM
- CC50 (SK-MEL-28; SK-MEL-28, read-out: LC50): 52 µM
- IC (TGI) (SK-MEL-28; SK-MEL-28, read-out: TGI): 25.3 µM
- GI50 (UACC-62; UACC-62): 13.3 µM
- CC50 (UACC-62; UACC-62, read-out: LC50): 55.8 µM
- IC (TGI) (UACC-62; UACC-62, read-out: TGI): 27.3 µM
- GI50 (SNB-19; SNB-19): 59.1 µM
- CC50 (SNB-19; SNB-19, read-out: LC50): > 100 µM
- IC (TGI) (SNB-19; SNB-19, read-out: TGI): > 100 µM
- GI50 (SNB-75; SNB-75): 18 µM
- CC50 (SNB-75; SNB-75, read-out: LC50): > 100 µM
- IC (TGI) (SNB-75; SNB-75, read-out: TGI): 79.3 µM
- GI50 (HCC-2998; HCC 2998): 19.2 µM
- CC50 (HCC-2998; HCC 2998, read-out: LC50): 67.9 µM
- IC (TGI) (HCC-2998; HCC 2998, read-out: TGI): 36.1 µM
- GI50 (HCT-116; HCT-116, HCT-116, five dose): 3.18 µM
- GI50 (HCT-116; HCT-116, HCT-116, 5-dose assay): 3.18 µM
- CC50 (HCT-116; HCT-116, read-out: LC50): 38.2 µM
- IC (TGI) (HCT-116; HCT-116, read-out: TGI): 12.7 µM
- GI50 (KM12; Homo sapiens, KM12): 23.9 µM
- CC50 (KM12; Homo sapiens, KM12, read-out: LC50): > 100 µM
- TGI (KM12; KM12, five dose): 7.00E−5
- Percent Growth (KM12; KM12, Log10 Concentration −4.0): −17%
- Percent Growth (KM12; KM12, Log10 Concentration −5.0): 90%
- Percent Growth (KM12; KM12, Log10 Concentration −6.0): 96%
- Percent Growth (KM12; KM12, Log10 Concentration −7.0): 95%
- Percent Growth (KM12; KM12, Log10 Concentration −8.0): 96%
- GI50 (786-0; 786-0): 14.4 µM
- CC50 (786-0; 786-0, read-out: LC50): 60 µM
- IC (TGI) (786-0; 786-0, read-out: TGI): 29.4 µM
- GI50 (A498; A498): 20.4 µM
- CC50 (A498; A498, read-out: LC50): 95.2 µM
- IC (TGI) (A498; A498, read-out: TGI): 44.1 µM
- GI50 (RXF 393; RXF 393, RXF 393, five dose): 4.08 µM
- GI50 (RXF 393; RXF 393, RXF 393, 5-dose assay): 4.08 µM
- CC50 (RXF 393; RXF 393, read-out: LC50): 47.9 µM
- IC (TGI) (RXF 393; RXF 393, read-out: TGI): 16.8 µM
- GI50 (UO-31; UO-31): 13.4 µM
- CC50 (UO-31; UO-31, read-out: LC50): 75.3 µM
- IC (TGI) (UO-31; UO-31, read-out: TGI): 31.8 µM
- GI50 (T-47D): 4.86 µM
- CC50 (T-47D; read-out: LC50): 63.8 µM
- IC (TGI) (T-47D; read-out: TGI): 19.2 µM
- GI50 (OVCAR-5; Homo sapiens, OVCAR-5): 13.5 µM
- CC50 (OVCAR-5; Homo sapiens, OVCAR-5, read-out: LC50): 59.3 µM
- IC (TGI) (OVCAR-5; Homo sapiens, OVCAR-5, read-out: TGI): 28.3 µM
- Percent Growth (OVCAR-5; OVCAR-5, Log10 Concentration −7.0): 9B
- GI50 (NCI/ADR-RES): > 100 µM
- CC50 (NCI/ADR-RES; read-out: LC50): > 100 µM
- IC (TGI) (NCI/ADR-RES; read-out: TGI): > 100 µM
- GI50 (SK-OV-3; SK-OV-3): 29.4 µM
- CC50 (SK-OV-3; SK-OV-3, read-out: LC50): > 100 µM
- IC (TGI) (SK-OV-3; SK-OV-3, read-out: TGI): > 100 µM
- GI50 (DU-145; DU-145): 7.42 µM
- CC50 (DU-145; DU-145, read-out: LC50): 46.3 µM
- IC (TGI) (DU-145; DU-145, read-out: TGI): 20.2 µM
- GI50 (NCI-H23; NCI-H23): 16.4 µM
- CC50 (NCI-H23; NCI-H23, read-out: LC50): 80.4 µM
- IC (TGI) (NCI-H23; NCI-H23, read-out: TGI): 36.3 µM
- GI50 (NCI-H522; NCI-H522): 1.78 µM
- CC50 (NCI-H522; NCI-H522, read-out: LC50): 32.2 µM
- IC (TGI) (NCI-H522; NCI-H522, read-out: TGI): 5.05 µM
